For series [1], the system named is Mouse HER3 mRNA. The series can be described thus: HER3 mRNA knockdown in liver of nude mice bearing 15PC3 xenografts, qd x 5 (qRT-PCR). As to conditions: i.v. The format is in vivo. As for the experimental part:
(§1) To evaluate the knockdown efficacy of the HER3 oligomeric compounds in vivo, the female nude mice bearing 15PC3 xenografts developed by subcutaneous injection of 5×10^6 cells/mouse into the right axillary flank, were injected intravenously with the oligomers at various doses and injection schedules (i.e. single dose, qd, q3d, q4d). Scrambled oligomer SEQ ID NO: 236 served as a negative control. 24 hours after the last injection, the mice were euthanized and liver and tumor tissues were collected in RNAlater solution (Ambion). Total RNA was purified from the tissues and the levels of HER3 mRNA were determined by quantitative reverse transcription-real time PCR (qRT-PCR) using the QuantiTect Probe RT-PCR kit (Cat#: 204443; Qiagen). GAPDH mRNA served as an internal control.
(§2) 200 ng of total RNA was used in the PCR reaction. The data analyses were performed by using the ABI-7500 PCR Fast System included software.
(§3) Data in Table 5 are presented as % HER3 mRNA levels relative to saline treated controls in liver and tumor samples after i.v. dosing of animals on 5 consecutive days with oligonucleotides in the doses indicated.
(In general: Real-time PCR tracks product formation cycle by cycle.)

The test system of series [2] is human HER3 mRNA. Kind of series: HER3 mRNA knockdown in 15PC3 xenograft tumor in nude mice, qd x 5 (qRT-PCR). As to conditions: i.v., relative to saline controls. The class given is in vivo. As to the method:
as §1, §2, §3

The subject of series [3] is HER3 mRNA. The series can be described thus: HER3 mRNA knockdown in 15PC3 xenograft tumor, different dosing cycle. The class given is in vivo, human. As to conditions: every third day. As for the experimental part: as §1
(§4) The knockdown efficacy of oligomers was evaluated in vivo in nude mice bearing xenograft tumors derived from 15PC3 cells or A549 cells (NSCLC) or N87 cells (gastric carcinoma) using a similar protocol to the one described above in Example 11. Oligomers were administered by injection every third day in 2-4 doses. Tissues were harvested 3 or 4 days after the last injection.
(§5) Data in Tables 6 and 7 are presented as % HER3 mRNA or HIF-1 alpha mRNA relative to saline treated controls in liver and tumor samples after i.v. dosing of animals with the indicated oligomers.

The subject of series [4] is HIF-1 alpha mRNA. The series can be described thus: HIF-1 alpha mRNA in 15PC3 xenograft tumor, different dosing cycle. The format is in vivo, human. As to conditions: every third day. As for the experimental part:
as §1, §4, §5
In general terms: Xenograft models place foreign cells or tissue in a host animal.

Series [5] concerns HER3 mRNA. The series can be described thus: HER3 mRNA knockdown in liver of xenograft-bearing nude mice, different dosing cycle. The format is in vivo, mouse. As to conditions: for Liver HER3 mRNA relative to saline treated controls: 15PC3 xenograft mice, every third day. As for the experimental part: as §1
(§6) The knockdown efficacy of oligomers was evaluated in vivo in nude mice bearing xenograft tumors derived from 15PC3 cells or A549 cells (NSCLC) or N87 cells (gastric carcinoma) using a similar protocol to the one described above in Example 11. […] Tissues were harvested 3 or 4 days after the last injection.
as §5

In series [6] the test system is HER3 mRNA. Kind of series: HER3 mRNA knockdown in A549 (NSCLC) xenograft tumor. The format is in vivo, human. As to conditions: 35 mg/kg, q4d x 3, i.v. As for the experimental part: as §1, §4, §5
For series [7], the system named is human HER3 mRNA. Kind of series: Down-regulation of HER3 mRNA in transfected HUH-7 cells, real-time PCR. The format is cell-based. As to conditions: 25 nM, HUH-7 cells (indicated by *). As for the experimental part: HUH7: The human hepatocarcinoma cell line was cultured in DMEM (Sigma)+10% fetal bovine serum (FBS)+2 mM Glutamax I+gentamicin (25 μg/ml)+1× Non Essential Amino Acids.
The cells were treated with oligonucleotides using the cationic liposome formulation LipofectAMINE 2000 (Gibco) as transfection vehicle. Cells were seeded in 6-well cell culture plates (NUNC) and treated when 80-90% confluent. Oligomer concentrations ranged from 1 nM to 25 nM final concentration. Formulation of oligomer-lipid complexes was carried out essentially as described by the manufacturer using serum-free OptiMEM (Gibco) and a final lipid concentration of 5 μg/mL LipofectAMINE 2000. […]
(§7) The sample content of human HER3, EGFR and HER2 mRNA was quantified using the human HER3, EGFR and HER2 ABI Prism Pre-Developed TaqMan Assay Reagents (Applied Biosystems cat. no. Hs00951444_ml (HER3), Hs00193306_ml (EGFR) and Hs00170433_ml (HER2) according to the manufacturer's instructions.
Glyceraldehyde-3-phosphate dehydrogenase (GAPDH) mRNA quantity was used as an endogenous control for normalizing any variance in sample preparation. The sample content of human GAPDH mRNA was quantified using the human GAPDH ABI Prism Pre-Developed TaqMan Assay Reagent (Applied Biosystems cat. no. 4310884E) according to the manufacturer's instructions. […]

Series [8] concerns human EGFR mRNA. Kind of series: Down-regulation of EGFR mRNA in transfected 15PC3 cells, real-time PCR. The format is cell-based. As to conditions: 25 nM. As for the experimental part:
(§8) 15PC3: The human prostate cancer cell line 15PC3 was cultured in DMEM (Sigma)+10% fetal bovine serum (FBS)+2 mM Glutamax I+gentamicin (25 μg/ml).
(§9) The cells were treated with oligonucleotides using the cationic liposome formulation LipofectAMINE 2000 (Gibco) as transfection vehicle. Cells were seeded in 6-well cell culture plates (NUNC) and treated when 80-90% confluent. Oligomer concentrations ranged from 1 nM to 25 nM final concentration. Formulation of oligomer-lipid complexes was carried out essentially as described by the manufacturer using serum-free OptiMEM (Gibco) and a final lipid concentration of 5 μg/mL LipofectAMINE 2000. Cells were incubated at 37° C. for 4 hours and treatment was stopped by removal of oligomer-containing culture medium. Cells were washed and serum-containing medium was added. After oligomer treatment, cells were allowed to recover for 20 hours before they were harvested for RNA analysis.
(§10) Total RNA was extracted from cells transfected as described above and using the Qiagen RNeasy kit (Qiagen cat. no. 74104) according to the manufacturer's instructions. First strand synthesis was performed using Reverse Transcriptase reagents from Ambion according to the manufacturer's instructions.
(§11) For each sample 0.5 μg total RNA was adjusted to (10.8 μl) with RNase free H2O and mixed with 2 μl random decamers (50 μM) and 4 μl dNTP mix (2.5 mM each dNTP) and heated to 70° C. for 3 min after which the samples were rapidly cooled on ice. After cooling the samples on ice, 2 μl 10× Buffer RT, 1 μl MMLV Reverse Transcriptase (100 U/μl) and 0.25 μl RNase inhibitor (10 U/μl) was added to each sample, followed by incubation at 42° C. for 60 min, heat inactivation of the enzyme at 95° C. for 10 min, and then cooling the sample to 4° C.
as §7
(§12) Glyceraldehyde-3-phosphate dehydrogenase (GAPDH) mRNA quantity was used as an endogenous control for normalizing any variance in sample preparation. The sample content of human GAPDH mRNA was quantified using the human GAPDH ABI Prism Pre-Developed TaqMan Assay Reagent (Applied Biosystems cat. no. 4310884E) according to the manufacturer's instructions.
(§13) The cDNA from the first strand synthesis performed as described in Example 5 was diluted 2-20 times, and analyzed by real time quantitative PCR using Taqman 7500 FAST or 7900 FAST from Applied Biosystems. The primers and probe were mixed with 2× Taqman Fast Universal PCR master mix (2×) (Applied Biosystems Cat. #4364103) and added to 4 μl cDNA to a final volume of 10 μl. Each sample was analysed in duplicate. Assaying 2-fold dilutions of a cDNA that had been prepared on material purified from a cell line expressing the RNA of interest generated standard curves for the assays. Sterile H2O was used instead of cDNA for the no-template control. PCR program: 95° C. for 30 seconds, followed by 40 cycles of 95° C., 3 seconds, 60° C., 20-30 seconds. Relative quantities of target mRNA sequence were determined from the calculated Threshold cycle using the Applied Biosystems Fast System SDS Software Version 1.3.1.21. or SDS Software Version 2.3.
(§14) Oligonucleotides presented in Table 4 were evaluated for their potential to down-regulate HER3, EGFR and HER2 mRNA at concentrations of 1, 5 and 25 nM in 15PC3 cells (or HUH-7 as indicated by *) (see FIGS. 2, 3, 4 and 5). SEQ ID NOs: 235 and 236 were used as scrambled controls.
(§15) The data in Table 4 are presented as percentage down-regulation of mRNA relative to mock transfected cells at 25 nM. Lower-case letters represent DNA monomers, bold, upper-case letters represent β-D-oxy-LNA monomers. All cytosines in LNA monomers are 5-methylcytosines. Subscript “s” represents a phosphorothioate linkage.

In series [9] the test system is human HER2 mRNA. Kind of series: Down-regulation of HER2 mRNA in transfected 15PC3 cells, real-time PCR. The class given is cell-based. As to conditions: 25 nM. As for the experimental part:
as §8, §9, §10, §11, §7, §12, §13, §14, §15

The subject of series [10] is HER3 mRNA. The series can be described thus: HER3 mRNA knockdown in N87 (gastric carcinoma) xenograft tumor. The format is in vivo, human. As to conditions: 25 mg/kg, q3d x 5, i.v. As for the experimental part:
as §1, §6, §5

Marks after values point to notes of the source that are not given here. In the oligonucleotide strings, read from the 5' end, every base follows the letter of its sugar. An asterisk marks phosphorothioate; unmarked linkages are phosphodiester. Other units and linkages are bracketed, terminal groups are in braces. A string of capitals states the bases alone. l = locked nucleic acid (LNA); [5mC] = 5-methylcytosine; d = 2'-deoxy (DNA)

Consider “CSGSCSASgSaStStSaSgSaSaSASCSCSt (l[5mC]*lG*l[5mC]*lA*dG*dA*dT*dT*dA*dG*dA*dA*lA*l[5mC]*l[5mC]*dT) [SEQ ID NO: 236, scrambled oligomer, negative control, reference compound]”, for which the “HER3 mRNA Liver” value in series [1] (22.9 mg/kg) is listed as 81.4 ± 6.5 % of Sal ctrl; in series [1] (30 mg/kg) it was 87.6 ± 19 % of Sal ctrl; in series [1] (60 mg/kg), 86.5 ± 9.9 % of Sal ctrl; in series [1] (76.3 mg/kg) it was 78 ± 17 % of Sal ctrl. In addition, the “HER3 mRNA Tumor” value in [2] (22.9 mg/kg) worked out at 119.3 ± 24.9%; in series [2] (30 mg/kg), 101.2 ± 21.1%; in [2] (60 mg/kg) it was 95.5 ± 12.7%; in series [2] (76.3 mg/kg) it was 100 ± 10.5%. Further, the “Tumor HER3 mRNA relative to saline treated controls” value in [3] (76.3 x 4 mg/kg i.v.) was 106 ± 6.6%. Moreover, the “Tumor Hif1A mRNA relative to saline treated controls” value in [4] (76.3 x 4 mg/kg i.v.) came out at 101 ± 13.8%. In series [5] (76.3 x 4 mg/kg i.v.), the “Liver HER3 mRNA relative to saline treated controls” value was 115.9 ± 26.3%. In series [5] (A549 xenograft mice, 35 mg/kg, q4d x 3, i.v.), the “HER3 Liver” value is listed as 97.5 ± 21.2 % saline control. The “HER3 Tumor” value in [6] turned out to be 87.6 ± 11.9 % saline control.
As for “GSASCSaStScSaScStScStSgSgSTSGST (lG*lA*l[5mC]*dA*dT*dC*dA*dC*dT*dC*dT*dG*dG*lT*lG*lT; antisense) [SEQ ID NO: 196]”, the “HER3: percentage down-regulation of mRNA relative to mock transfected cells” value in series [7] is 77.0%*.
On to “GSCSTScScSaSgSaScSaStScSaSCSTSC (antisense lG*l[5mC]*lT*dC*dC*dA*dG*dA*dC*dA*dT*dC*dA*l[5mC]*lT*l[5mC]) [SEQ ID NO: 169, β-D-oxy-LNA/DNA phosphorothioate gapmer antisense oligonucleotide targeting HER3]”, for which, in [8], the “EGFR: percentage down-regulation of mRNA relative to mock transfected cells” value worked out at 95.2%. Moreover, the “HER2: percentage down-regulation of mRNA relative to mock transfected cells” value in [9] was determined as 75.8%. In addition, the “HER3 mRNA Liver” value is 10.2 ± 5.5 % of Sal ctrl in [1] (11.3 mg/kg) and 20.7 ± 9.8 % of Sal ctrl in series [1] (37.7 mg/kg). Moreover, the “HER3 mRNA Tumor” value in series [2] (37.7 mg/kg) amounted to 77 ± 10%. In addition, in series [3] (37.7 x 4 mg/kg i.v.), the “Tumor HER3 mRNA relative to saline treated controls” value was 81.6 ± 12.7%. The “Tumor Hif1A mRNA relative to saline treated controls” value in [4] (37.7 x 4 mg/kg i.v.) is 94.6 ± 19.6%. Further, the “Liver HER3 mRNA relative to saline treated controls” value in series [5] (37.7 x 4 mg/kg i.v.) turned out to be 39 ± 4.6%.
Regarding “TSASGScScStStStSgSaScScStSCSTSC (antisense lT*lA*lG*dC*dC*dT*dT*dT*dG*dA*dC*dC*dT*l[5mC]*lT*l[5mC]) [SEQ ID NO: 249, reference compound]”, the “HER3 Liver” value in series [5] (N87 xenograft mice, 25 mg/kg, q3d x 5, i.v.) is recorded as 123 ± 4.5 % saline control. The “HER3 Tumor” value in series [10] is 99.0 ± 8.9 % saline control.

The values are drawn from patent US20120076781A1, “METHODS OF TREATING CANCERS WITH HER3 ANTISENSE OLIGONUCLEOTIDES” (ENZON PHARMACEUTICALS, INC., priority 2009, published 2012).
